The source made the active and inactive calls.
How the values were obtained:
HEK293 = assay: EBV LMP1 TES2 canonical NF-kB signalling blockers – cell-based, HEK293, luciferase, cherry-pick, dose response (AID 588343); type: functional; conditions: Homo sapiens
BJ [1] = assay: BJ-TERT fibroblast viability loss – cell-based, RAS-independent, luminescence, dose response (AID 1933); type: functional; conditions: Homo sapiens
BJ [2] = assay: growth inhibition of engineered Ras-driven BJ cells – cell-based, alamar blue fluorescence, cherrypicked samples, dose response (AID 2631); type: functional; conditions: Homo sapiens;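 also: confirmatory dose-response assay in RAS-dependent BJ fibroblasts engineered with TERT, LT and ST, with cytotoxicity read by fluorescence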
BJ [3] = assay: cells; type: functional, cell-based; conditions: Homo sapiens
Vero = assay: cells; type: functional; conditions: Chlorocebus sabaeus
BJ [4] = assay: BJ-TERT-LT-ST fibroblast viability loss – cell-based, RAS-independent, luminescence, dose response (AID 1935); type: functional; conditions: Homo sapiens;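 also: BJ fibroblasts immortalized with TERT plus LT and ST oncogenes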
[5] = DRD fibroblast viability loss – cell-based, non-viral oncogenic, luminescence, dose response (AID 1934); type: functional; conditions: Homo sapiens
[6] = molecular target: T1, Sentrin-specific protease 8 (Homo sapiens, UniProt Q96LD8); type: functional;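 also: luminescence read-out of SENP8 inhibition, dose-response confirmation following an ultra-high-throughput screen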
T1 sequence (Q96LD8 whole entry): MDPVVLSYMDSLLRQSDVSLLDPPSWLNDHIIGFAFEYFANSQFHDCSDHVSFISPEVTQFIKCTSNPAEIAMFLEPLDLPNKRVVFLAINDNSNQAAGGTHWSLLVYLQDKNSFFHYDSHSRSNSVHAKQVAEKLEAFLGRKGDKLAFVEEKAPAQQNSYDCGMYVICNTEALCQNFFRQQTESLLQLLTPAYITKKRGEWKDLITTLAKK

[7] = molecular target: T2, Sentrin-specific protease 6 (Homo sapiens, UniProt Q9GZR1); type: functional;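 also: Luminescence-based dose-response confirmatory assay of SENP6 inhibition, following up an ultra-high-throughput screen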
T2 sequence (Q9GZR1 whole entry): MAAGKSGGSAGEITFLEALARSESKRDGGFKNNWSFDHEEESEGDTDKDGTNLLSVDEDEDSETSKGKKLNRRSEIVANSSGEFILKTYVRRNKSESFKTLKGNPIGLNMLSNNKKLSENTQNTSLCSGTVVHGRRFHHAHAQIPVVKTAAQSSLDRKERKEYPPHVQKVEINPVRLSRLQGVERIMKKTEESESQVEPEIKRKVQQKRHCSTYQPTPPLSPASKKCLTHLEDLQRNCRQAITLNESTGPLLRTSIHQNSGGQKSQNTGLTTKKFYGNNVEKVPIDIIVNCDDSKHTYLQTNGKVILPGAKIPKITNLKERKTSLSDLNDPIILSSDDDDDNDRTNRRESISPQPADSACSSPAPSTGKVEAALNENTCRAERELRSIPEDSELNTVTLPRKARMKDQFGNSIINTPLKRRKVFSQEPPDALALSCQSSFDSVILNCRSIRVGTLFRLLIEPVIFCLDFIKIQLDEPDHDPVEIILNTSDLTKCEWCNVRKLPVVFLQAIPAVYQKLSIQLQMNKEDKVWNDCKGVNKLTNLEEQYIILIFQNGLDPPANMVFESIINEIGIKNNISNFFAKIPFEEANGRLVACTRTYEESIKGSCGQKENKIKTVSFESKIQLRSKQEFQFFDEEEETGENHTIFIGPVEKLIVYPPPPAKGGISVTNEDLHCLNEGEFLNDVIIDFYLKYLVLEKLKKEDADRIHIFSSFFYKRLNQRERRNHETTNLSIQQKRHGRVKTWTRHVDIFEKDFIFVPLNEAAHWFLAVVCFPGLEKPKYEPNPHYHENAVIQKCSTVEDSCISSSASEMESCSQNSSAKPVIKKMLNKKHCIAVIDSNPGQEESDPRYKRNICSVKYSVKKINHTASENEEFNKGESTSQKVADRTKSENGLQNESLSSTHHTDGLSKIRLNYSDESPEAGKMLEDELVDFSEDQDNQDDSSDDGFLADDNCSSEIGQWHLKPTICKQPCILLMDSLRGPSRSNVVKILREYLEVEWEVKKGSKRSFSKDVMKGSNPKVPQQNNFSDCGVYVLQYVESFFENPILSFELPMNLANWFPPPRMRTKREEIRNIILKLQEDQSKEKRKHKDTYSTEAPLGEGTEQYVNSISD

[8] = molecular target: T3, Sentrin-specific protease 7 (Homo sapiens, UniProt Q9BQF6); type: functional;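 also: Luminescence-based dose-response confirmation of ultra-high-throughput screening hits, measuring inhibition of SENP7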
T3 sequence (Q9BQF6 whole entry): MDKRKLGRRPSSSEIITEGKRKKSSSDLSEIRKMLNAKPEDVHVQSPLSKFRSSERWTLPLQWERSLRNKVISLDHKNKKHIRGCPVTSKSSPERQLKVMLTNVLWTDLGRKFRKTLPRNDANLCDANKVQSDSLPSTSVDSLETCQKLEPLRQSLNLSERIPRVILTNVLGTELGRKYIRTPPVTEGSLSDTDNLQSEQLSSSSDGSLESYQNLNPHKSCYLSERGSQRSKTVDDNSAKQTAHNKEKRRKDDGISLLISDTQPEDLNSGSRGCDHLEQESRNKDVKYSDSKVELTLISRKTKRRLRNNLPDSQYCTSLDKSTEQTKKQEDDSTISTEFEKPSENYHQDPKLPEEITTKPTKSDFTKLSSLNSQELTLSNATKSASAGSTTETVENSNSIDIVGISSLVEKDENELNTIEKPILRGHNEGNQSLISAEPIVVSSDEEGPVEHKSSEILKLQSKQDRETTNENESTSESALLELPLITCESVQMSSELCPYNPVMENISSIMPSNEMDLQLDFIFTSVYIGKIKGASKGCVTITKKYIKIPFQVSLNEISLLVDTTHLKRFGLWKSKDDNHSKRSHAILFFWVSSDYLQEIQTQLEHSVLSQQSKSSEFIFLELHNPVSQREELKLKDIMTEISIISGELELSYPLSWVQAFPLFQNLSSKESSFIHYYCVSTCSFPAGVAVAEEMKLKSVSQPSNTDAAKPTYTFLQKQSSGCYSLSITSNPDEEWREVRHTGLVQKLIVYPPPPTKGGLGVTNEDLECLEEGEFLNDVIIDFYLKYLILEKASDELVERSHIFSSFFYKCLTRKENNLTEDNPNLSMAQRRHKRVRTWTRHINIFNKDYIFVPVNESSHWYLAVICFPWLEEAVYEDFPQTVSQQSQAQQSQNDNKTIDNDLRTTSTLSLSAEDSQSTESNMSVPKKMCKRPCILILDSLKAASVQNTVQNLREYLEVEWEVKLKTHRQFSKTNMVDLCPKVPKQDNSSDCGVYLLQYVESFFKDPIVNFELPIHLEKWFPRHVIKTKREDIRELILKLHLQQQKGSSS

Caspase-3 = molecular target: T4, Caspase-3 (Homo sapiens, UniProt P42574); type: functional;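 also: Dose-response selectivity test against caspase-3 for candidate inhibitors of sentrin-specific proteases (SENPs)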
T4 sequence (P42574 whole entry): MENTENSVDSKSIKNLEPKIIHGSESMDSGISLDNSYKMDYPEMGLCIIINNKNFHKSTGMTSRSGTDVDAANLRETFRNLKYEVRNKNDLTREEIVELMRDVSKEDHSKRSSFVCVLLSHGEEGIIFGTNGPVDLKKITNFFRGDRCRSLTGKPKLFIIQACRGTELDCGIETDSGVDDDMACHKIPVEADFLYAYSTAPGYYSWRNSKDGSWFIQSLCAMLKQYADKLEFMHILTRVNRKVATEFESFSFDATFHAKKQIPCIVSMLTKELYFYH

[9] = viability of uninfected HEp-2 cells – cell-based, HTS, cytotoxicity control for RSV inhibitor project, dose response (AID 2410); type: functional; conditions: human respiratory syncytial virus

With `CCOCCCn1c(=S)[nH]c2ncccc2c1=O` the AC50 (HEK293) was 135 µM (active).
With `O=C(CCCN1C(=O)/C(=C/c2cccc(Br)c2)SC1=S)NCCCN1CCOCC1` the EC50 (BJ [1]) was 2.78 µM (inconclusive), the EC50 (BJ [2]) was > 133 µM (inactive) and the EC50 (BJ [3]) was 14.7 µM (active). For the same compound, the CC50 (Vero) was > 25 µM (active), the EC50 (BJ [4]) was > 150 µM (not active) and the EC50 [5] was 17.1 µM (active).
In the case of `Cc1cc(C=C2C(=O)c3ccccc3C2=O)c(C)n1C`, the IC50 [6] is reported as 74.6 µM (active), the IC50 [7] is reported as 56.1 µM (active) and the IC50 [8] is reported as 24.6 µM (active). For the same compound, the IC50 (Caspase-3) was 35.2 µM (active).
For `O=C(c1cc(-c2ccc(Cl)cc2Cl)on1)N1CCCCCC1`, the IC50 [6] was 20.5 µM (active), the IC50 [7] was 18.5 µM (active) and the IC50 [8] was 6.51 µM (active). For the same compound, the CC50 [9] was 39.3 µM (active) and the IC50 (Caspase-3) was 17.2 µM (active).

— ChEMBL document CHEMBL1201862, “PubChem BioAssay data set” (2004)
